The values that follow come from patent publication US20140134139A1, “CD34+ CELLS AND METHODS OF USE” (NORTHWESTERN UNIVERSITY, priority 2012, published 2014).

Series [1] has as its system Lineage-Sca-1+CD31+ EPCs. Description: Real-time PCR gene expression in drug-treated sorted mouse EPCs. The series is classed as cell-based. On the procedure:
Relative mRNA expression of target genes was normalized to the endogenous 18S control gene.
Lineage-Sca-1+CD31+ EPCs were cultured on 5 μg/mL human fibronectin coated plates in DMEM supplemented with 10% FBS and penicillin/streptomycin at 37° C. with 5% CO2. Human CD34+ cells were cultured in X-VIVO (Lonza) media supplemented with 0.5% human serum albumin, 50 ng/mL Flt3 ligand, 20 ng/mL stem cell factor, 50 ng/mL VEGF, and 10 ng/mL thrombopoietin. Either cell type was treated with VPA (2.5 mM) for 24 hours then 500 nM 5′ Aza was added to the culture media and cells remained in culture for an additional 24 hours (48 hours total). Different ranges of doses were tested with above doses being determined as the optimal doses not only for reprogramming but also for displaying minimal cellular toxicity. Further, a staggered treatment protocol, that is, contacting an EPC culture with a first epigenetic programming agent (for example, VPA) for a first period of time (for example, 24 hr), followed by contacting the EPC culture with a second epigenetic programming agent (for example, 5′-Aza) for a second period of time (for example, 24 hr) was determined to be a highly preferred protocol for reprogramming. Mouse EPCs were also cultured with 1 μM BIX-01294 for 48 hours in the same culture conditions. […]
On the technique in general: In qPCR the cycle at which signal appears reflects the starting amount.

For series [2], the system named is murine endothelial cells (SVEC). The experiment in a line: Western blot of histone acetylation and methylation in SVEC cells. The class given is cell-based, mouse. The conditions noted are these: 1 μM BIX-01294, compared to untreated control cells. A general note: In western blotting, separated proteins are transferred to a membrane and probed.
Method: Cell lysate from 1.5×10^7 SVEC cells was prepared using whole cell lysate buffer (50 mM Tris-HCl, 0.5% Igepal (NP-40), 150 nM NaCl). […] Equal protein loading in each lane was verified using antibodies against β-actin and changes in modified histone levels were quantified by first normalization to total H3 or H4 protein.
Therefore, murine endothelial cells (SVEC) were treated with either 1 μM BIX-01294 or staggered addition of 1 mM VPA then 500 nM 5′-Azacytidine for 48 h and histone acetylation and methylation were assessed by western blot.
The subject of the next series is Nkx2.5 promoter. The experiment in a line: Pyrosequencing methylation analysis of the Nkx2.5 promoter in SVECs. The settings on record: treated vs control SVEC cells. The class given is cell-based, mouse.
The subject of a further series is human CD34+ cells. Description: Toxicity to human CD34+ cells. The series is classed as cell-based. The conditions noted are these: similar drug doses as for mouse EPCs and even 2-fold reduced levels. On the procedure:
In an attempt to increase their plasticity, 2.0×10^5 sorted EPCs were seeded on fibronectin coated plates then treated for 48 hours with individual or combinations of epigenetic modifying agents; 500 nM 5′-Azacytidine (5′ Aza; DNA methyltransferase inhibitor), 1 mM valproic acid (VPA; histone deacetylase inhibitor), 1 mM BIX-01294 (histone methyltransferase inhibitor). Drug dosages were verified as non-toxic by cell viability analysis (data not shown). […] All mRNA expression was normalized to 18S RNA then presented as a fold difference compared to untreated EPCs. […]
The epigenetic reprogramming by these small molecules was evaluated in human CD34+ cells to determine whether their reprogramming potential is limited to mouse EPCs or whether it can also be translated to human EPCs (bone marrow mobilized CD34+ cells), currently used in clinical trials (Losordo D W et al., Circ. Res. 109:428-436 (2011)). CD34+ cells, obtained from healthy donors and provided by Baxter healthcare, were treated or not with VPA (2.5 mM) and 5′ Aza (500 nM) and mRNA expression of pluripotency and cardiomyocyte-specific transcripts was determined. […] In order to determine enhanced functional capacity of reprogrammed CD34+ cells in the repair of post-infarct myocardium, a previously determined sub-therapeutic dose of 2.5×10^4 cells was used for post-AMI transplantation in immune-e-deficient mouse AMI model. […]

A further series concerns SVEC cells. Description: ChIP assay of acetylated H3K9 at Oct4 and cardiomyocyte gene promoters in SVEC cells. The series is classed as cell-based, mouse. The settings on record: p<0.05.
Series [3] concerns Lineage-Sca-1+CD31+ EPCs. Description: Cell viability analysis of drug-treated mouse EPCs. The settings on record: 500 nM 5′ Aza, 1 mM VPA, 1 mM BIX-01294; 48 hours; data not shown. The series is classed as cell-based. On the procedure: In an attempt to increase their plasticity, 2.0×10^5 sorted EPCs were seeded on fibronectin coated plates then treated for 48 hours with individual or combinations of epigenetic modifying agents; 500 nM 5′-Azacytidine (5′ Aza; DNA methyltransferase inhibitor), 1 mM valproic acid (VPA; histone deacetylase inhibitor), […] (histone methyltransferase inhibitor). Drug dosages were verified as non-toxic by cell viability analysis (data not shown). […] All mRNA expression was normalized to 18S RNA then presented as a fold difference compared to untreated EPCs. […] Since the treated cells express cardiomyocyte genes at basal level they may be more inclined to differentiate into mature CMCs under conditions conducive for CMC differentiation. Similar changes in gene expression were found in human CD34+ cells with the regimen of 2.5 mM VPA followed by 500 nM 5′ Aza (FIG. 2A). BIX-01294 treatment, even at reduced doses, was toxic to human CD34+ cells and was therefore not used in human cell studies.

`COc1cc2nc(N3CCCN(C)CC3)nc(NC3CCN(Cc4ccccc4)CC3)c2cc1OC` [BIX-01294]: in the series with Lineage-Sca-1+CD31+ EPCs [1] (real-time PCR immediately after treatment, without cardiomyocyte differentiation conditions), the “induction of cardiomyocyte-specific transcripts” value is “de novo induction of cardiomyocyte-specific transcripts”. In addition, the “Oct4 expression, fold difference compared to untreated EPCs” value in the series with Lineage-Sca-1+CD31+ EPCs [1] (real-time PCR, normalized to 18S RNA, 48 hours with 1 mM BIX-01294, or 24 hours 1 mM VPA then 24 hours 500 nM 5′ Aza) is recorded as 9.5±2.0 fold. Also, the “reduction of H3K9 di-methylation” value in series [2] is 64.3±11%. For the same compound, in the series with Nkx2.5 promoter, the “CpG methylation patterns of Nkx2.5” value is “no significant difference”. In addition, the “toxicity to human CD34+ cells” value in the series on human CD34+ cells is given as “toxic”. Besides, in the series on SVEC cells (compared to non-treated cells), the “acetylated H3K9 bound to cardiac-specific gene promoters (Actn2, Ryr2, TnnT2)” value is on record as “more heavily bound by acetylated H3K9”. Moreover, in the series with SVEC cells (compared to untreated controls), the “acetylated H3K9 bound to the core (CP) and regulatory promoter (RP) regions of Oct4” value is given as “significant increase”. Also, the “toxicity of drug dosages by cell viability analysis” value with Lineage-Sca-1+CD31+ EPCs [3] was “non-toxic”.

Take `CCCC(CCC)C(=O)O` [VPA, valproic acid]: the “toxicity of drug dosages by cell viability analysis” value with Lineage-Sca-1+CD31+ EPCs [3] is “non-toxic”.
